Tests used:
Type in all cases: in vivo
[1] = tested on: pigweed (Amaranthus retroflexus); assay: Test A preemergence; settings: preemergence
[2] = tested on: ryegrass, Italian (Italian ryegrass, Lolium multiflorum); assay: Test A preemergence; settings: preemergence
In short: (§1)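 Visual injury, scored on a 0–100 scale relative to untreated controls, was recorded about 10 d after application. Treatments were a preemergence soil spray over planted seeds or a postemergence spray on plants at the one- to two-leaf stage, 2 to 10 cm tall, all in loam soil–sand blend in the greenhouse.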

[3] = tested on: Kochia (Kochia scoparia); assay: Test A preemergence
In short: as §1

[4] = tested on: giant foxtail (Setaria faberii); assay: Test A preemergence
In short: as §1

[5] = tested on: ragweed (common ragweed, Ambrosia elatior); assay: Test A preemergence; settings: preemergence
In short: as §1

[6] = tested on: barnyardgrass (Echinochloa crus-galli); assay: Test A preemergence
In short: as §1

[7] = tested on: rice (Oryra sativa); assay: Test B flooded paddy test; settings: Flood, 0 to 100 scale where 0 is no effect and 100 is complete control, 13 to 15 d
In short: (§2)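 Compound goes directly into floodwater once pots are flooded 3 cm above soil, targeting plants at two leaves; the water depth is then held for the test duration. Plants sit 13–15 d in a greenhouse and are rated visually, 100 denoting complete control.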

[8] = tested on: ducksalad (Heteranthera limosa); assay: Test B flooded paddy test; settings: Flood, 0 to 100 scale where 0 is no effect and 100 is complete control, 13 to 15 d
In short: as §2

[9] = tested on: sedge, umbrella (small-flower umbrella sedge, Cyperus difformis); assay: Test B flooded paddy test; settings: Flood, 0 to 100 scale where 0 is no effect and 100 is complete control, 13 to 15 d
In short: as §2

[10] = tested on: barnyardgrass (Echinochloa crus-galli); assay: Test B flooded paddy test; settings: Flood, 0 to 100 scale where 0 is no effect and 100 is complete control, 13 to 15 d
In short: as §2

[11] = tested on: pigweed (Amaranthus retroflexus); assay: Test A postemergence; settings: postemergence, 0 to 100 scale (0 no effect, 100 complete control)
In short: as §1

[12] = tested on: ryegrass, Italian (Italian ryegrass, Lolium multiflorum); assay: Test A postemergence; settings: postemergence, 0 to 100 scale (0 no effect, 100 complete control)
In short: as §1

[13] = tested on: Kochia (Kochia scoparia); assay: Test A postemergence; settings: postemergence, 0 to 100 scale (0 no effect, 100 complete control)
In short: as §1

[14] = tested on: blackgrass (Alopecurus myosuroides); assay: Test A postemergence; settings: postemergence, 0 to 100 scale (0 no effect, 100 complete control)
In short: as §1

[15] = tested on: giant foxtail (Setaria faberii); assay: Test A postemergence; settings: postemergence, 0 to 100 scale (0 no effect, 100 complete control)
In short: as §1

[16] = tested on: wheat (Triticum aestivum); assay: Test A postemergence; settings: postemergence, 0 to 100 scale (0 no effect, 100 complete control)
In short: as §1

[17] = tested on: ragweed (common ragweed, Ambrosia elatior); assay: Test A postemergence; settings: postemergence, 0 to 100 scale (0 no effect, 100 complete control)
In short: as §1

[18] = tested on: corn (Zea mays); assay: Test A postemergence; settings: postemergence, 0 to 100 scale (0 no effect, 100 complete control)
In short: as §1

[19] = tested on: Galium (catchweed bedstraw, Galium aparine); assay: Test A postemergence; settings: postemergence, 0 to 100 scale (0 no effect, 100 complete control)
In short: as §1

[20] = tested on: barnyardgrass (Echinochloa crus-galli); assay: Test A postemergence; settings: postemergence, 0 to 100 scale (0 no effect, 100 complete control)
In short: as §1

[21] = 125 g ai/ha, visual rating after approx. 10 d, 0 to 100 scale where 0 is no effect and 100 is complete control
[22] = 500 g ai/ha, 0 to 100 scale, 0 = no effect, 100 = complete control
[23] = 125 g ai/ha, preemergence, visual rating after approx. 10 d, 0 to 100 scale where 0 is no effect and 100 is complete control
[24] = 500 g ai/ha, preemergence, 0 to 100 scale, 0 = no effect, 100 = complete control
[25] = 125 g ai/ha, visual injury after approximately 10 d
[26] = 500 g ai/ha, visual injury, approx. 10 d
[27] = 125 g ai/ha, Preemergence, visual injury after approximately 10 d, 0 to 100 scale where 0 is no effect and 100 is complete control
[28] = 125 g ai/ha, visual rating after approx. 10 d

| Compound | Plant response rating, Pigweed [1, 21] | Plant response rating, Pigweed [1, 22] | Plant response rating, Ryegrass, Italian [2, 21] | Plant response rating, Ryegrass, Italian [2, 22] | Plant response rating, Kochia [3, 24] | Plant response rating, Foxtail, Giant [4, 24] | Plant response rating, Ragweed [5, 21] | Plant response rating, Ragweed [5, 22] | Plant response rating, Barnyardgrass [6, 24] | Plant response rating, Pigweed [11, 25] | Plant response rating, Pigweed [11, 26] | Plant response rating, Ryegrass, Italian [12, 25] | Plant response rating, Ryegrass, Italian [12, 26] | Plant response rating, Kochia [13, 25] | Plant response rating, Kochia [13, 26] | Plant response rating, Blackgrass [14, 26] | Plant response rating, Foxtail, Giant [15, 25] | Plant response rating, Foxtail, Giant [15, 26] | Plant response rating, Wheat [16, 25] | Plant response rating, Wheat [16, 26] | other results |
| --- | --- | --- | --- | --- | --- | --- | --- | --- | --- | --- | --- | --- | --- | --- | --- | --- | --- | --- | --- | --- | --- |
| COC(=O)c1ccccc1NC(=O)C1C(=O)NCC1c1cccc(C(F)(F)F)c1 (racemic) [Compound 705] | 0 | 0 | 0 | 0 | 0 | 0 | 0 | 0 | 0 | 0 | 0 | 0 | 0 | 0 | 0 | 0 | 0 | 0 | 0 | 0 | Plant response rating, Kochia [3, 23]: 0; Plant response rating, Foxtail, Giant [4, 23]: 0; Plant response rating, Barnyardgrass [6, 23]: 0; Plant response rating, Rice ([7]; 500 g ai/ha): 0; Plant response rating, Ducksalad ([8]; 500 g ai/ha): 0; Plant response rating, Sedge, Umbrella ([9]; 500 g ai/ha): 0; Plant response rating, Barnyardgrass ([10]; 500 g ai/ha): 0; Plant response rating, Blackgrass [14, 25]: 0; Plant response rating, Ragweed [17, 25]: 0; Plant response rating, Ragweed [17, 26]: 0; Plant response rating, Corn [18, 25]: 0; Plant response rating, Corn [18, 26]: 0; Plant response rating, Galium [19, 25]: 0; Plant response rating, Galium [19, 26]: 0; Plant response rating, Barnyardgrass [20, 25]: 0; Plant response rating, Barnyardgrass [20, 26]: 0 |
| O=C(Nc1ccccc1F)C1C(=O)N(CC2CC2)CC1c1cccc(C(F)(F)F)c1 (stereo not drawn) [Compound 682] | 0 | 0 | 20 | 30 | 0 | 90 | 0 | 0 | 0 | 0 | 0 | 0 | 0 | 0 | 0 | 0 | 20 | 80 | 0 | 20 | Plant response rating, Kochia [3, 27]: 0; Plant response rating, Foxtail, Giant [4, 27]: 90; Plant response rating, Barnyardgrass [6, 27]: 0; Plant response rating, Rice ([7]; 250 g ai/ha): 0; Plant response rating, Ducksalad ([8]; 250 g ai/ha): 0; Plant response rating, Sedge, Umbrella ([9]; 250 g ai/ha): 0; Plant response rating, Barnyardgrass ([10]; 250 g ai/ha): 0; Plant response rating, Blackgrass [14, 28]: 0; Plant response rating, Ragweed [17, 25]: 0; Plant response rating, Ragweed [17, 26]: 0; Plant response rating, Corn [18, 25]: 0; Plant response rating, Corn [18, 26]: 0; Plant response rating, Galium [19, 25]: 0; Plant response rating, Galium [19, 26]: 0; Plant response rating, Barnyardgrass [20, 28]: 0; Plant response rating, Barnyardgrass [20, 26]: 20 |

From patent US12077503B2, “Substituted cyclic amides and their use as herbicides” (FMC CORPORATION, priority 2015, dated 2024)
